The results in this text go back to patent US20040106545A1, “Compounds and methods for modulating cell adhesion” (priority 1996, published 2004).

One series concerns HMVEC. Type of series: cell-based, human. The settings on record: 3 h. As for the experimental part: (§1) N—Ac-CHAVC-NH2 (SEQ ID NO:10) and the control peptide N—Ac-CHGVC-NH2 (SEQ ID NO:11) were evaluated for possible cytotoxic effects on human microvascular endothelial (HMVEC; Clonetics), human umbilical vein endothelial (HUVEC; ATCC #CRL-1730), IAFp2 (human fibroblast cell line; Institute Armand-Frapier, Montreal, Quebec), WI-38 (human fibroblast cell line; ATCC #CCL-75), MDA-MB231 (human breast cancer cell line; ATCC #HTB-26), and PC-3 (human prostate cancer cell line; ATCC #CRL-1435) cells utilizing the MTT assay (Plumb et al., Cancer Res. 49:4435-4440, 1989). Neither of the peptides was cytotoxic at concentrations up to and including 100 μM. Similarly, neither of the peptides was capable of inhibiting the proliferation of the above cell lines at concentrations up to 100 μM, as judged by ^3H-thymidine incorporation assays.

A further series relates to HUVEC. In kind it is cell-based, human. The settings on record: 3 h. The method, then:
as §1

A further series has as its system IAFp2. Type of series: cell-based, human. To be noted: 3 h. The method, then: as §1
Series [1] deals with MDA-MB231. In kind it is cell-based, human. To be noted: 3 h. As for the experimental part: as §1
Series [2] relates to PC-3. In kind it is cell-based, human. The settings on record: 3 h. As for the experimental part: as §1
The subject of the next series is WI-38. Type of series: cell-based, human. To be noted: 3 h. As for the experimental part: as §1
Series [3] has as its system MDA-MB231. In words: Cytotoxicity, MTT assay, MDA-MB231. In kind it is cell-based, human. The method, then:
as §1

Series [4] concerns PC-3. In words: Cytotoxicity, MTT assay, PC-3. Type of series: cell-based, human. The method, then:
as §1
(In general: Tetrazolium assays rely on reduction of a dye to a coloured formazan, in cell work by metabolically active cells.)

Another series deals with T1, N-cadherin (Gallus gallus, UniProt P10288).
T1 construct: expressed in transfected cells; host or cells: 3T3 fibroblasts (monolayer)
T1 sequence (P10288 165-912): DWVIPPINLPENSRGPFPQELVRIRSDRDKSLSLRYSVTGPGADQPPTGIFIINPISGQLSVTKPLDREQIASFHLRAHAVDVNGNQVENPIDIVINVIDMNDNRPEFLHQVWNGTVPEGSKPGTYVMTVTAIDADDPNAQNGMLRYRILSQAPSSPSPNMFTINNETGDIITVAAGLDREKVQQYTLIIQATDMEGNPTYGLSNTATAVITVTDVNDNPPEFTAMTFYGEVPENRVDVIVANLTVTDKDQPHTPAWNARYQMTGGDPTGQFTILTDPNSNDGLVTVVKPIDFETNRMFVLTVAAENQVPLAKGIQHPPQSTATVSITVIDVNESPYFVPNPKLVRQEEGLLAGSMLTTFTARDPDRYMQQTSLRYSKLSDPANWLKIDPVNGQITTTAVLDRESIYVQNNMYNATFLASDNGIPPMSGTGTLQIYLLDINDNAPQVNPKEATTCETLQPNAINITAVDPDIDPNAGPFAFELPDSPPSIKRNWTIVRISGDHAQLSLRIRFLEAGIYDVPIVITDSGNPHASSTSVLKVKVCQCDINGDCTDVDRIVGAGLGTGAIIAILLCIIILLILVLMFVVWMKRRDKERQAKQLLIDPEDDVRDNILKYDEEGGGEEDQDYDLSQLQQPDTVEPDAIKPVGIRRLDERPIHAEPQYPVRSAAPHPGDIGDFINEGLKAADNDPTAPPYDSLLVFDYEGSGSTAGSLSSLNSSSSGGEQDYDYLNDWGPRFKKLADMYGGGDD
In words: Neurite outgrowth inhibition, rat neurons (Example 21). Type of series: cell-based. To be noted: read-out: % Inhibition of neurite outgrowth; 250 μg/mL.

In the next series the target is T2, chick N-cadherin (Gallus gallus, UniProt P10288).
T2 construct: expressed in transfected cells; host or cells: 3T3 fibroblasts (monolayer); rat post-natal day 2-3 cerebellar neurons plated on top
T2 sequence (P10288 165-912): T1 sequence (P10288 165-912)
In words: Neurite outgrowth of rat cerebellar neurons on N-cadherin expressing 3T3 monolayers (Example 15). Type of series: cell-based. The settings on record: Tables 8 and 9. The method, then:
Cell culture and neurite outgrowth assays. Co-cultures of cerebellar neurons on monolayers of control 3T3 cells and monolayers of transfected 3T3 cells that express physiological levels of chick N-cadherin or human L1 were established as previously described (Williams et al., Neuron 13:583-594, 1994). In brief, 80,000 3T3 cells (control and transfected) were plated into individual chambers of an eight-chamber tissue culture slide coated with polylysine and fibronectin and cultured in DMEM/10% FCS. After 24 hours, when confluent monolayers had formed, the medium was removed and 3000 cerebellar neurons isolated from post-natal day 2-3 rats were plated into each well in SATO media (Doherty et al., Nature 343:464-466, 1990) supplemented with 2% FCS. All of the test peptides were added immediately before the neurons as a 2× stock prepared in SATO/2% FCS. The co-cultures were maintained for 16-18 hours, at which time they were fixed and immunostained for GAP-43 which is present only in the neurons and delineates the neuritic processes. The mean length of the longest neurite per cell was measured for 150-200 neurons sampled in replicate cultures as previously described (Williams et al., Neuron 13:583-594, 1994). […] Dose-response curves were evaluated and the EC50 values determined.

Series [5] relates to chick embryonic chorioallantoic membranes. In words: Chick chorioallantoic membrane angiogenesis assay. Type of series: in vivo. To be noted: for Percent Inhibition of Angiogenesis: 24 hours. The method, then: Another cell adhesion assay evaluates the ability of a modulating agent to block angiogenesis (the growth of blood vessels from pre-existing blood vessels). This ability may be assayed using the chick chorioallantoic membrane assay described by Iruela-Arispe et al., Molecular Biology of the Cell 6:327-343, 1995. Briefly, a modulating agent may be embedded in a mesh composed of vitrogen at one or more concentrations (e.g., ranging from about 1 to 100 μg/mesh). The mesh(es) may then be applied to chick chorioallantoic membranes. After 24 hours, the effect of the peptide may be determined using computer assisted morphometric analysis. A modulating agent should inhibit angiogenesis by at least 25% at a concentration of 33 μg/mesh.
The chick chorioallantoic membrane assay was used to assess the effects of cyclic peptides on angiogenesis (Iruela-Arispe et al., Molecular Biology of the Cell 6:327-343, 1995). Cyclic peptides were embedded in a mesh composed of vitrogen at concentrations of 3, 17, and 33 μg/mesh. The meshes were then applied to 12-day-old chick embryonic chorioallantoic membranes. After 24 hours, the effects of the peptides on angiogenesis were assessed by computer assisted morphometric analysis.

Molecules are shown by their SMILES. Read-outs that look alike come from different tables or passages of the source. Positions of bridges follow the written chain, without caps; N, C: chain ends. Residues, ends and D or L forms follow the SMILES beside them.

What is called IC50 is the concentration that inhibits the measured activity by half. High values mean a need for much substance, low ones inhibition by little substance. What is called inhibition is the percentage by which the read-out fell short of the control. For the compound `CC(=O)N[C@H]1CSSC[C@@H](C(N)=O)NC(=O)[C@H](CO)NC(=O)[C@H](CO)NC(=O)[C@H](C(C)C)NC(=O)CNC(=O)[C@H](Cc2c[nH]cn2)NC(=O)[C@H](CO)NC1=O` (Ac-CSHGVSSC-NH2; disulfide 1-8), the half-inhibitory concentration (IC50) in the series on HMVEC, with HUVEC, with IAFp2, in the series with MDA-MB231 [1], with PC-3 [2] and in the series on WI-38 was over 100 µM in each case. Besides, the IC50 with MDA-MB231 [3] and with PC-3 [4] was over 100 µM throughout. The inhibition at 250 µg/mL on N-cadherin worked out at 0%.

With `CC[C@H](C)[C@@H]1NC(=O)[C@H](CC(=O)O)NC(=O)[C@H](C(C)C)NC(=O)[C@H](C)NC(=O)[C@H](Cc2c[nH]cn2)NC(=O)[C@H](C)NC(=O)[C@@H](N)CSSC[C@@H](C(N)=O)NC1=O` (H-CAHAVDIC-NH2; disulfide 1-8), the IC50 in the series with HMVEC, in the series on HUVEC, in the series on IAFp2, in the series on MDA-MB231 [1], in the series with PC-3 [2] and in the series on WI-38 was over 100 µM throughout. Besides, the IC50 with MDA-MB231 [3] and in the series with PC-3 [4] was over 100 µM each time. In addition, the “inhibitory activity on N-cadherin dependent neurite outgrowth, structure/activity statements” value on chick N-cadherin (listed as H-CAHAVDIC-NH2) is reported as “total loss of activity”; at chick N-cadherin (listed as compound 15), “lost activity”. In addition, the inhibition at 250 µg/mL on N-cadherin worked out at 0%.

Take `CC[C@H](C)[C@@H]1NC(=O)[C@H](CC(=O)O)NC(=O)[C@H](C(C)C)NC(=O)CNC(=O)[C@H](Cc2c[nH]cn2)NC(=O)[C@H](C)NC(=O)[C@@H](N)CSSC[C@@H](C(N)=O)NC1=O` (H-CAHGVDIC-NH2; disulfide 1-8): the IC50 with HMVEC, with HUVEC, with IAFp2, in the series with MDA-MB231 [1], with PC-3 [2] and with WI-38 was over 100 µM in each case. The IC50 with MDA-MB231 [3] and with PC-3 [4] was over 100 µM each time. In addition, the inhibition at 250 µg/mL on N-cadherin was 0%.

Turning to `CC(C)[C@@H]1NC(=O)[C@H](C)NC(=O)[C@H](Cc2c[nH]cn2)NC(=O)[C@H](C)NC(=O)[C@@H](N)CSSC[C@@H](C(N)=O)NC(=O)[C@H](CC(=O)O)NC1=O` [H—CAHAVDC—NH2, H-Cys-Ala-His-Ala-Val-Asp-Cys-NH2] (H-CAHAVDC-NH2; disulfide 1-7), the IC50 with HMVEC, in the series on HUVEC, in the series on IAFp2, in the series on MDA-MB231 [1], with PC-3 [2] and with WI-38 was over 100 µM in each case. In addition, the IC50 with MDA-MB231 [3] and with PC-3 [4] was over 100 µM in each case. Moreover, the inhibition at 250 µg/mL on N-cadherin amounted to 0%.

For `CC(C)[C@@H]1NC(=O)CNC(=O)[C@H](Cc2c[nH]cn2)NC(=O)[C@H](C)NC(=O)[C@@H](N)CSSC[C@@H](C(N)=O)NC(=O)[C@H](CC(=O)O)NC1=O` [H—CAHGVDC—NH2] (H-CAHGVDC-NH2; disulfide 1-7), the half-maximal inhibitory concentration (IC50) in the series on HMVEC, in the series with HUVEC, in the series with IAFp2, in the series with MDA-MB231 [1], in the series on PC-3 [2] and with WI-38 was over 100 µM in each case. Besides, the half-maximal inhibitory concentration (IC50) in the series with MDA-MB231 [3] and in the series on PC-3 [4] was over 100 µM each time. For the same compound, at N-cadherin, the inhibition at 250 µg/mL stood at 0%.

With `CC(=O)N[C@H]1CSSC[C@@H](C(N)=O)NC(=O)[C@H](CO)NC(=O)[C@H](C(C)C)NC(=O)CNC(=O)[C@H](Cc2c[nH]cn2)NC1=O` [N—Ac—CHGVSC—NH2] (Ac-CHGVSC-NH2; disulfide 1-6), the 50% inhibitory concentration (IC50) was over 100 µM with HMVEC; 42 µM in the series with HUVEC; over 100 µM in the series on IAFp2; over 100 µM in the series with MDA-MB231 [1]; over 100 µM in the series with PC-3 [2]; over 100 µM with WI-38. For the same compound, the IC50 with MDA-MB231 [3] and in the series on PC-3 [4] was over 100 µM each time. In addition, on N-cadherin, the inhibition at 250 µg/mL was 0%.

In the case of `CC(=O)N[C@H]1CSSC[C@@H](C(N)=O)NC(=O)[C@H](C(C)C)NC(=O)CNC(=O)[C@H](Cc2c[nH]cn2)NC(=O)[C@H](CO)NC1=O` [N—Ac—CSHGVC—NH2] (Ac-CSHGVC-NH2; disulfide 1-6), the IC50 in the series on HMVEC, in the series on HUVEC, in the series on IAFp2, with MDA-MB231 [1], with PC-3 [2] and in the series with WI-38 was over 100 µM in each case. The IC50 in the series with MDA-MB231 [3] and in the series with PC-3 [4] was over 100 µM throughout. Besides, on N-cadherin, the inhibition at 250 µg/mL turned out to be 0%.

Regarding `CC(=O)N[C@H]1CSSC[C@@H](C(N)=O)NC(=O)[C@H](Cc2c[nH]cn2)NC(=O)[C@H](C)NC(=O)[C@H](C(C)C)NC1=O` [N—Ac—CVAHC—NH2] (Ac-CVAHC-NH2; disulfide 1-5), the “Percent Inhibition of Angiogenesis” value is recorded as −1%^ in [5] (3 μg/mesh, absence (−) of 0.01 mM VEGF); 7% in [5] (3 μg/mesh, presence (+) of 0.01 mM VEGF); 13% in series [5] (17 μg/mesh, absence (−) of 0.01 mM VEGF); 24% in [5] (17 μg/mesh, presence (+) of 0.01 mM VEGF); 12% in series [5] (33 μg/mesh, absence (−) of 0.01 mM VEGF); 25% in series [5] (33 μg/mesh, presence (+) of 0.01 mM VEGF). Besides, the “inhibition of angiogenesis (in words)” value in series [5] (3, 17 and 33 μg/mesh) is “relatively inactive”. Moreover, the IC50 is over 100 µM in the series on HMVEC; 8 µM in the series with HUVEC; over 100 µM in the series with IAFp2; over 100 µM in the series with MDA-MB231 [1]; over 100 µM in the series with PC-3 [2]; over 100 µM in the series on WI-38. In addition, the IC50 with MDA-MB231 [3] and in the series on PC-3 [4] was over 100 µM in each case.
